# Assay results as given in patent publication US20050009840A1 (SUGEN, INC., priority 2003, published 2005).
# Biological target: T1, Met kinase domain (GST fusion protein) (Homo sapiens, UniProt P08581)
# T1 construct: Purified GST fusion protein containing the Met kinase domain
# Assay: Met transphosphorylation assay (ELISA, poly(glu-tyr) substrate);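 note: Cell-free ELISA with plate-bound poly(Glu:Tyr 4:1) phosphorylated by GST-fused Met kinase domain plus ATP and Mn2+, phosphotyrosine detected by anti-phosphotyrosine antibody with HRP and ABTS read-out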
# Assay type: biochemical
# Details: plain numbers in column Met IC50 (μM) of Table 2; read-out: Met IC50
# T1 sequence (P08581 1078-1345 limits assumed): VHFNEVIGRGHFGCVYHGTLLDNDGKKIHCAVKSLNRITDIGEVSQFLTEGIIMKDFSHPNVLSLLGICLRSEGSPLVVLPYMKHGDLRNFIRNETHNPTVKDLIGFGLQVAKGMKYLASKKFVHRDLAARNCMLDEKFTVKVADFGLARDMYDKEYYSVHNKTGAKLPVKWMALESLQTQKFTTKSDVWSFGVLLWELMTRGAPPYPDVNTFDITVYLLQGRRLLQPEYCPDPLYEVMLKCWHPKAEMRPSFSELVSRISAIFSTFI
row,Compound,IC50 [µM]
1,"CC(Oc1cc(-c2cccc(C(=O)N3C[C@@H](C)N[C@@H](C)C3)c2)cnc1N)c1c(Cl)cccc1Cl (stereo partly drawn) [Example I-387, (3-{6-Aminno-5-[1-(2,6-dichloro-phenyl)-ethoxy]-pyridin-3-yl}-phenyl)-((3R,5S)-3,5-dimethyl-piperazin-1-yl)-methanone]",0.16
2,"CC(Oc1cc(-c2cccc(C(=O)N3CCC(N4CCCC4)CC3)c2)cnc1N)c1c(Cl)cccc1Cl (stereo not shown) [Example I-388, (3-{6-Amino-5-[1-(2,6-dichloro-phenyl)-ethoxy]-pyridin-3-yl}-phenyl)-(4-pyrrolidin-1-yl-piperidin-1-yl)-methanone]",0.1
3,"CC(Oc1cc(-c2cccc(C(=O)NCCN3CCCC3)c2)cnc1N)c1c(Cl)cccc1Cl (stereo not shown) [Example I-389, 3-{6-Amino-5-[1-(2,6-dichloro-phenyl)-ethoxy]-pyridin-3-yl}-N-(2-pyrrolidin-1-yl-ethyl)-benzamide]",0.13
4,"CC(Oc1cc(-c2cccc(C(=O)NCCN3CCOCC3)c2)cnc1N)c1c(Cl)cccc1Cl (stereo not shown) [Example I-390, 3-{6-Amino-5-[1-(2,6-dichloro-phenyl)-ethoxy]-pyridin-3-yl}-N-(2-morpholin-4-yl-ethyl)-benzamide]",0.12
5,"CC(Oc1cc(-c2cccc(C(=O)N3CCC[C@H]3CN3CCCC3)c2)cnc1N)c1c(Cl)cccc1Cl (stereo partly drawn) [Example I-391, (3-{6-Amino-5-[1-(2,6-dichloro-phenyl)-ethoxy]-pyridin-3-yl}-phenyl)-((S)-2-pyrrolidin-1-ylmethyl-pyrrolidin-1-yl)-methanone]",0.098
6,"CC(Oc1cc(-c2cccc(C(=O)NCCCN3CCCC3)c2)cnc1N)c1c(Cl)cccc1Cl (stereo not shown) [Example I-392, 3-{6-Amino-5-[1-(2,6-dichloro-phenyl)-ethoxy]-pyridin-3-yl}-N-(3-pyrrolidin-1-yl-propyl)-benzamide]",0.072
7,"CC(=O)N1CCN(CCNC(=O)c2cccc(-c3cnc(N)c(OC(C)c4c(Cl)cccc4Cl)c3)c2)CC1 (stereo not shown) [Example I-393, N-[2-(4-Acetyl-piperazin-1-yl)-ethyl]-3-{6-amino-5-[1-(2,6-dichloro-phenyl)-ethoxy]-pyridin-3-yl}-benzamide]",0.079
8,"CC(Oc1cc(-c2cccc(C(=O)NC3CCN(C)CC3)c2)cnc1N)c1c(Cl)cccc1Cl (stereo not shown) [Example I-394, 3-{6-Amino-5-[1-(2,6-dichloro-phenyl)-ethoxy]-pyridin-3-yl}-N-(1-methyl-piperidin-4-yl)-benzamide]",0.061
9,"CC(Oc1cc(-c2cccc(C(=O)N3CCN(C)CC3)c2)cnc1N)c1c(Cl)cccc1Cl (stereo not shown) [Example I-395, (3-{6-amino-5-[1-(2,6-dichloro-phenyl)-ethoxy]-pyridin-3-yl}-phenyl)-(4-methyl-piperazin-1-yl)-methanone]",0.058
10,"CC(Oc1cc(-c2cccc(C(=O)N3CCC[C@@H]3CN3CCCC3)c2)cnc1N)c1c(Cl)cccc1Cl (stereo partly drawn) [Example I-396, (3-{6-Amino-5-[1-(2,6-dichloro-phenyl)-ethoxy]-pyridin-3-yl}-phenyl)-((R)-2-pyrrolidin-1-ylmethyl-pyrrolidin-1-yl)-methanone]",0.18
11,"CC(Oc1cc(-c2cccc(C(=O)N3CC[C@H](N)C3)c2)cnc1N)c1c(Cl)cccc1Cl (stereo partly drawn) [Example I-397, (3-{6-Amino-5-[1-(2,6-dichloro-phenyl)-ethoxy]-pyridin-3-yl}-phenyl)-((S)-3-amino-pyrrolidin-1-yl)-methanone]",0.055
12,"CC(Oc1cc(-c2cccc(C(=O)N3CC[C@@H](N)C3)c2)cnc1N)c1c(Cl)cccc1Cl (stereo partly drawn) [Example I-398, (3-{6-Amino-5-[1-(2,6-dichloro-phenyl)-ethoxy]-pyridin-3-yl}-phenyl)-((R)-3-amino-pyrrolidin-1-yl)-methanone]",0.072
13,"CC(Oc1cc(-c2ccc(C(=O)NCCN3CCOCC3)cc2)cnc1N)c1c(Cl)cccc1Cl (stereo not shown) [Example I-401, 4-{6-Amino-5-[1-(2,6-dichloro-phenyl)-ethoxy]-pyridin-3-yl}-N-(2-morpholin-4-yl-ethyl)-benzamide]",0.073
